How the values were obtained:
Cavia porcellus = species: Cavia porcellus; test: Displacement of [3H]-(+)-MK-801 from N-methyl D-aspartate receptor phencyclidine binding site in guinea pig brain cortex membranes at 1 uM after 150 mins by scintillation counting method; assay type: cell membranes
[1] = Displacement of [3H]DTG from sigma2 receptor in rat liver membranes after 180 mins by scintillation counting method; assay type: cell membranes, Membrane
[2] = target: Sigma non-opioid intracellular receptor 1 (Cavia porcellus, UniProt Q60492); test: Displacement of [3H](+)-pentazocine from sigma1 receptor in guinea pig brain membranes after 180 mins by scintillation counting method; assay type: cell membranes, Membrane
[3] = target: Glutamate receptor ionotropic, NMDA 2B (Homo sapiens, UniProt Q05586+Q13224); test: Displacement of [3H]ifenprodil from human GluN2B expressed in mouse L(tk-) cells co-expressing GluN1a after 120 mins by scintillation counting method; assay type: cell-based
Chain of Glutamate receptor ionotropic, NMDA 2B (Q13224 whole entry, one chain of several): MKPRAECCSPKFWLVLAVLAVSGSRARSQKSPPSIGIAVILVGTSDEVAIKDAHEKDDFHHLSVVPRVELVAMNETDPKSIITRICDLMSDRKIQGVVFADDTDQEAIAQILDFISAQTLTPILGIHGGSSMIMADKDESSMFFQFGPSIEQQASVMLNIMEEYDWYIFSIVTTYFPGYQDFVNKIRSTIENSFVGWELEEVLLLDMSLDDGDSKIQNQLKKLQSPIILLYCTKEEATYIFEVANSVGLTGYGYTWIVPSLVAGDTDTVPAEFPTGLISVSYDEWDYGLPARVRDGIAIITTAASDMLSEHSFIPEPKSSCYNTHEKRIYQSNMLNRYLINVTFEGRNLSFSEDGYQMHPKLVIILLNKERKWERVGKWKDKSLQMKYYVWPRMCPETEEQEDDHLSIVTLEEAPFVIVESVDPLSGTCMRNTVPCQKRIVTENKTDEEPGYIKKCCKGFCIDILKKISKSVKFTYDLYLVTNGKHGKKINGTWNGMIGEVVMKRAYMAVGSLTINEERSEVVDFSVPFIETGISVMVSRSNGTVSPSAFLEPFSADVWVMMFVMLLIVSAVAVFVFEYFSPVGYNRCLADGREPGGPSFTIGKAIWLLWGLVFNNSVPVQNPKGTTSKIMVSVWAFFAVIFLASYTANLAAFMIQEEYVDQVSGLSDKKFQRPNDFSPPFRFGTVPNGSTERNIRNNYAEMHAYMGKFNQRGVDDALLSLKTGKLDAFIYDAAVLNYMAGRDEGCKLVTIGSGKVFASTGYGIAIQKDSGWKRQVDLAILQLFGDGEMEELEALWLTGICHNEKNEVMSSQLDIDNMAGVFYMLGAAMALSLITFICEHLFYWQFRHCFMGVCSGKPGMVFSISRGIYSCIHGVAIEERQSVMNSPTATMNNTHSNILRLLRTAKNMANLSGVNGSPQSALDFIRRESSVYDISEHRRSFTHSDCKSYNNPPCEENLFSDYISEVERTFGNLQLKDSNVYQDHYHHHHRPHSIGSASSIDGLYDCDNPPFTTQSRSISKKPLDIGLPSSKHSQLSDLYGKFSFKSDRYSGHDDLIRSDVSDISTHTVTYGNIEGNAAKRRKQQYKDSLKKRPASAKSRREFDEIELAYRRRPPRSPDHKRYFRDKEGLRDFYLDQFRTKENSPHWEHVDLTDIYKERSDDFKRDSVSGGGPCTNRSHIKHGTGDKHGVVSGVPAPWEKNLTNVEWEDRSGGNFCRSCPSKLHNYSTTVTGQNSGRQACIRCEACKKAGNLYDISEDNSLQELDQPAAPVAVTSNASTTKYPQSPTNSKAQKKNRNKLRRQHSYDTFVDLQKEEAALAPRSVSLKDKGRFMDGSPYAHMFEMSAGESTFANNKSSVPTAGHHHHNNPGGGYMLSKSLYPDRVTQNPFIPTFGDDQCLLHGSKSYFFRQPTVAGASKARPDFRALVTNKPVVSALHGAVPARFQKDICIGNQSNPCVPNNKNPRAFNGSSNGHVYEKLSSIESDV

Chain of Sigma non-opioid intracellular receptor 1 (Q60492 whole entry): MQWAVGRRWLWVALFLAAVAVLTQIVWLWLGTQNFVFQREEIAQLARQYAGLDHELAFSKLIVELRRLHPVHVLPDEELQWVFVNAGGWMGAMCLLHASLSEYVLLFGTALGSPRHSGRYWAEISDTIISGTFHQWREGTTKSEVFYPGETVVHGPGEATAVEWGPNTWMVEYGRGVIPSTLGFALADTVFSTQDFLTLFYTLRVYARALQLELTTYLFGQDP

Row | inhibition (Cavia porcellus) [%] | Ki [1] [nM] | Ki [2] [nM] | Ki [3] [nM] | SMILES
1 | 22 | 554 |  |  | COc1ccc2c(c1)CCN(CCCCc1ccccc1)CC2O (stereo unspecified)
2 | 2 | 55 | 216 | 17 | c1ccc(CCCCNC2CCc3ccccc3CC2)cc1
3 | 5 | 200 | 182 | 12 | c1ccc(N2CCN(C3CCc4ccccc4CC3)CC2)cc1
4 | 43 | 3 | 14 | 2.3 | c1ccc([C@H]2CC[C@@H](NC3CCc4ccccc4CC3)CC2)cc1
5 | 0 | 27 | 150 | 16 | c1ccc(CCCNC2CCc3ccccc3CC2)cc1
6 | 12 | 9.2 | 132 | 16 | COc1ccc2c(c1)CCC(NCCCc1ccccc1)CC2O (stereo unspecified)
7 | 30 | 5.4 | 5.7 | 2.9 | c1ccc(CC2CCN(C3CCc4ccccc4CC3)CC2)cc1
8 | 16 | 203 | 107 | 57 | c1ccc(CNC2CCc3ccccc3CC2)cc1
9 | 0 | 198 | 22 | 20 | c1ccc(CCNC2CCc3ccccc3CC2)cc1
10 | 30 | 14 | 20 | 5.7 | c1ccc([C@H]2CC[C@H](NC3CCc4ccccc4CC3)CC2)cc1
11 | 11 | 18 | 22 | 6.9 | c1ccc(C2CCN(C3CCc4ccccc4CC3)CC2)cc1
12 | 0 | 15 | 27 | 10 | COc1ccc2c(c1)CCC(NCCCc1ccccc1)CC2 (stereo unspecified)
